Results: the NIST ThermoML archive (doi:10.1016/j.jct.2019.105891)
± gives the expanded uncertainty stated by the source.

Legend:
[1] = xn = mol fraction of the nth substance listed; conditions: 100 kPa, Liquid, Falling or rolling sphere viscometry
[2] = refractive index (Na D-line) (dimensionless); xn = mol fraction of the nth substance listed; conditions: 100 kPa, Liquid, Standard Abbe refractometry

Nc1ccccc1 [aniline] + CCn1cc[n+](C)c1.F[B-](F)(F)F
Conditions	refractive index, 293.15 K	refractive index, 303.15 K	refractive index, 313.15 K	refractive index, 323.15 K	viscosity, 293.15 K [mPa·s]	viscosity, 303.15 K [mPa·s]	viscosity, 313.15 K [mPa·s]	viscosity, 323.15 K [mPa·s]
[1], x2 = 0	–	–	–	–	4.38 ± 0.26	3.24 ± 0.2	2.47 ± 0.15	1.95 ± 0.12
[1], x2 = 0.1008	–	–	–	–	6.84 ± 0.48	4.88 ± 0.35	3.66 ± 0.26	2.66 ± 0.19
[1], x2 = 0.2035	–	–	–	–	9.46 ± 0.64	6.99 ± 0.47	5.16 ± 0.35	3.89 ± 0.26
[1], x2 = 0.3059	–	–	–	–	12.58 ± 0.83	8.93 ± 0.58	6.81 ± 0.45	5.07 ± 0.33
[1], x2 = 0.4053	–	–	–	–	15.93 ± 1	11.33 ± 0.73	8.59 ± 0.55	6.51 ± 0.42
[1], x2 = 0.5073	–	–	–	–	20.31 ± 1.3	14.07 ± 0.9	10.48 ± 0.67	7.99 ± 0.51
[1], x2 = 0.6013	–	–	–	–	24.51 ± 1.6	17.1 ± 1.1	12.51 ± 0.79	9.51 ± 0.6
[1], x2 = 0.7046	–	–	–	–	28.93 ± 1.8	20.39 ± 1.3	14.91 ± 0.93	11.06 ± 0.69
[1], x2 = 0.8067	–	–	–	–	33.76 ± 2.1	23.93 ± 1.5	17.35 ± 1.1	12.99 ± 0.81
[1], x2 = 0.9059	–	–	–	–	39.55 ± 2.5	27.15 ± 1.7	19.68 ± 1.2	14.9 ± 0.92
[2], x2 = 0	1.58481 ± 0.001	1.58152 ± 0.001	1.57823 ± 0.001	1.57494 ± 0.001	–	–	–	–
[2], x2 = 0.1008	1.56571 ± 0.0024	1.56202 ± 0.0024	1.55833 ± 0.0024	1.55464 ± 0.0024	–	–	–	–
[2], x2 = 0.2035	1.54192 ± 0.0024	1.53814 ± 0.0024	1.53436 ± 0.0024	1.53058 ± 0.0025	–	–	–	–
[2], x2 = 0.3059	1.52125 ± 0.0023	1.51691 ± 0.0023	1.51285 ± 0.0024	1.5078 ± 0.0024	–	–	–	–
[2], x2 = 0.4053	1.50001 ± 0.0023	1.49592 ± 0.0023	1.49183 ± 0.0022	1.48774 ± 0.0022	–	–	–	–
[2], x2 = 0.5073	1.47963 ± 0.0022	1.47616 ± 0.0022	1.47269 ± 0.0022	1.46922 ± 0.0021	–	–	–	–
[2], x2 = 0.6013	1.46255 ± 0.0019	1.45885 ± 0.0019	1.45515 ± 0.0019	1.45245 ± 0.0019	–	–	–	–
[2], x2 = 0.7046	1.44852 ± 0.0017	1.44449 ± 0.0017	1.44126 ± 0.0017	1.43823 ± 0.0017	–	–	–	–
[2], x2 = 0.8067	1.43589 ± 0.0016	1.43188 ± 0.0016	1.42857 ± 0.0016	1.42556 ± 0.0016	–	–	–	–
[2], x2 = 0.9059	1.42458 ± 0.0015	1.42066 ± 0.0015	1.41748 ± 0.0015	1.41454 ± 0.0015	–	–	–	–
